Here are results for 15 compounds from PubChem BioAssay AID270 (DTP/NCI, 2004).

Several values for one entry are separate records, joined by “and”; a condition that tells them apart may be missing. Equal entries are not always repeated. Records with an inconclusive call do not appear.

This experiment has as its system BDF1 mice, s.c. Lewis lung carcinoma, T/C %. Put plainly: NCI In Vivo Anticancer Drug Screen. Data for tumor model Lewis Lung Carcinoma (subcutaneous) in B6D2F1 (BDF1) mice. The procedure, abridged:
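Tumor-bearing mice were treated with test compound, and either survival or tumor size was recorded. Values are the treated-group measurement divided by that of the vehicle-treated control group.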

Where [1] appears, read: endpoint: median survival time, dose: 0.12 mg/kg/injection, schedule: Q01DX009 (ip), vehicle: saline, higher = longer survival.
The mark [2] stands for this setting: endpoint: median survival time, dose: 0.25 mg/kg/injection, schedule: Q01DX009 (ip), vehicle: saline, higher = longer survival.
[3] abbreviates: endpoint: mean tumor weight, dose: 50.0 mg/kg/injection, schedule: Q01DX011 (ip), vehicle: saline, higher = larger tumour.
Setting [4] is: endpoint: mean tumor weight, dose: 100.0 mg/kg/injection, schedule: Q01DX011 (ip), vehicle: saline, higher = larger tumour.
[5] abbreviates: endpoint: median survival time, dose: 2.5 mg/kg/injection, schedule: Q01DX009 (ip), vehicle: saline, higher = longer survival.
Where [6] appears, read: endpoint: median survival time, dose: 5.0 mg/kg/injection, schedule: Q01DX009 (ip), vehicle: saline, higher = longer survival.
[7] abbreviates: endpoint: median survival time, dose: 10.0 mg/kg/injection, schedule: Q01DX009 (ip), vehicle: saline, higher = longer survival.

For the compound `CO[C@@]12[C@H](COC(N)=O)C3=C(C(=O)C(C)=C(N)C3=O)N1C[C@@H]1N[C@@H]12`, the T/C runs as follows: under setting [1], 98 % of control; (endpoint: median survival time, dose: 0.25 mg/kg/injection, schedule: Q01DX009 (ip), vehicle: Klucel (hydroxypropylcellulose) (HPC), higher = longer survival) 96 % of control; under setting [2], 98 % of control; (endpoint: median survival time, dose: 0.5 mg/kg/injection, schedule: Q01DX009 (ip), vehicle: Klucel (hydroxypropylcellulose) (HPC), higher = longer survival) 96 % of control; (endpoint: median survival time, dose: 0.5 mg/kg/injection, schedule: Q01DX009 (ip), vehicle: saline, higher = longer survival) 96 % of control; (endpoint: median survival time, dose: 1.0 mg/kg/injection, schedule: Q01DX009 (ip), vehicle: saline, higher = longer survival) 103 % of control.
`O=C1NC2(CCCCC2)C(=O)N1CCN(CCCl)CCCl`: the T/C was 98 % of control (endpoint: median survival time, dose: 1.5 mg/kg/injection, schedule: Q01DX009 (ip), vehicle: Klucel (hydroxypropylcellulose) (HPC), higher = longer survival); 91 % of control (endpoint: median survival time, dose: 1.5 mg/kg/injection, schedule: Q01DX009 (ip), vehicle: saline, higher = longer survival); 87 % of control and 93 % of control (endpoint: median survival time, dose: 1.56 mg/kg/injection, schedule: Q01DX009 (ip), vehicle: saline, higher = longer survival); 104 % of control (endpoint: median survival time, dose: 3.0 mg/kg/injection, schedule: Q01DX009 (ip), vehicle: Klucel (hydroxypropylcellulose) (HPC), higher = longer survival); 89 % of control (endpoint: median survival time, dose: 3.0 mg/kg/injection, schedule: Q01DX009 (ip), vehicle: saline, higher = longer survival); 100 % of control (endpoint: median survival time, dose: 3.12 mg/kg/injection, schedule: Q01DX009 (ip), vehicle: saline, higher = longer survival). Moreover, the T/C is 106 % of control (endpoint: median survival time, dose: 6.0 mg/kg/injection, schedule: Q01DX009 (ip), vehicle: saline, higher = longer survival); 111 % of control (endpoint: median survival time, dose: 6.25 mg/kg/injection, schedule: Q01DX009 (ip), vehicle: saline, higher = longer survival); 89 % of control (endpoint: median survival time, dose: 12.0 mg/kg/injection, schedule: Q01DX009 (ip), vehicle: saline, higher = longer survival); 97 % of control (endpoint: median survival time, dose: 12.5 mg/kg/injection, schedule: Q01DX009 (ip), vehicle: saline, higher = longer survival).
Regarding `OCN(CO)c1nc(N(CO)CO)nc(N(CO)CO)n1`, the T/C (endpoint: median survival time, dose: 6.25 mg/kg/injection, schedule: Q01DX009 (ip), vehicle: saline with Tween-80, higher = longer survival) is 109 % of control; the T/C (endpoint: median survival time, dose: 12.5 mg/kg/injection, schedule: Q01DX009 (ip), vehicle: saline with Tween-80, higher = longer survival) is 107 % of control; the T/C (endpoint: median survival time, dose: 25.0 mg/kg/injection, schedule: Q01DX009 (ip), vehicle: saline with Tween-80, higher = longer survival) is 102 % of control.
`CC(C)(c1ccccc1)c1ccc(O)cc1`: the T/C by setting is: (endpoint: mean tumor weight, dose: 45.0 mg/kg/injection, schedule: Q01DX011 (ip), vehicle: carboxymethylcellulose (CMC), higher = larger tumour) 82 % of control; (endpoint: mean tumor weight, dose: 65.0 mg/kg/injection, schedule: Q01DX011 (ip), vehicle: carboxymethylcellulose (CMC), higher = larger tumour) 60 % of control.
Consider `CCC(CCC(C)C1CCC2C3CC=C4CC(OC(=O)CCC(=O)O)CCC4(C)C3CCC12C)C(C)C` (stereo not drawn), for which the T/C runs as follows: (endpoint: mean tumor weight, dose: 200.0 mg/kg/injection, schedule: Q01DX011 (ip), vehicle: water, higher = larger tumour) 63 % of control; (endpoint: mean tumor weight, dose: 400.0 mg/kg/injection, schedule: Q01DX011 (ip), vehicle: water, higher = larger tumour) 38 % of control; (endpoint: mean tumor weight, dose: 450.0 mg/kg/injection, schedule: Q01DX011 (ip), vehicle: water, higher = larger tumour) 59 % of control; (endpoint: mean tumor weight, dose: 600.0 mg/kg/injection, schedule: Q01DX011 (ip), vehicle: water, higher = larger tumour) 31 % of control.
On to `CC(=O)C(C)=O`, for which the T/C was 116 % of control under setting [3]; 76 % of control under setting [4]; 71 % of control (endpoint: mean tumor weight, dose: 200.0 mg/kg/injection, schedule: Q01DX011 (ip), vehicle: saline, higher = larger tumour); 87 % of control (endpoint: mean tumor weight, dose: 400.0 mg/kg/injection, schedule: Q01DX011 (ip), vehicle: saline, higher = larger tumour).
For the compound `COc1cccc2c1C(=O)c1c(O)c3c(c(O)c1C2=O)C[C@@](O)(C(=O)CO)C[C@@H]3OC1CC(N)C(O)C(C)O1` (stereo partly drawn), the T/C (endpoint: median survival time, dose: 0.03 mg/kg/injection, schedule: Q01DX009 (ip), vehicle: saline, higher = longer survival) is 88 % of control; the T/C (endpoint: median survival time, dose: 0.06 mg/kg/injection, schedule: Q01DX009 (ip), vehicle: saline, higher = longer survival) was 88 % of control; the T/C under setting [1] is 100 % of control; the T/C under setting [2] was 105 % of control; the T/C (endpoint: median survival time, dose: 0.25 mg/kg/injection, schedule: Q08HX024 (ip), vehicle: saline, higher = longer survival) was 113 % of control; the T/C (endpoint: median survival time, dose: 0.5 mg/kg/injection, schedule: Q08HX024 (ip), vehicle: saline, higher = longer survival) is 182 % of control. For the same compound, the T/C (endpoint: median survival time, dose: 1.0 mg/kg/injection, schedule: Q08HX024 (ip), vehicle: saline, higher = longer survival) was 89 % of control; the T/C (endpoint: median survival time, dose: 1.92 mg/kg/injection, schedule: Q04DX003 (ip), vehicle: saline, higher = longer survival) is 104 % of control and 106 % of control; the T/C (endpoint: median survival time, dose: 1.92 mg/kg/injection, schedule: Q04DX003 (iv), vehicle: saline, higher = longer survival) was 93 % of control and 108 % of control; the T/C (endpoint: median survival time, dose: 2.74 mg/kg/injection, schedule: Q04DX003 (ip), vehicle: saline, higher = longer survival) was 99 % of control and 103 % of control; the T/C (endpoint: median survival time, dose: 2.74 mg/kg/injection, schedule: Q04DX003 (iv), vehicle: saline, higher = longer survival) was 99 % of control and 111 % of control; the T/C (endpoint: median survival time, dose: 3.36 mg/kg/injection, schedule: Q01DX001 (ip), vehicle: saline, higher = longer survival) was 101 % of control and 102 % of control. The T/C (endpoint: median survival time, dose: 3.36 mg/kg/injection, schedule: Q01DX001 (iv), vehicle: saline, higher = longer survival) is 101 % of control and 105 % of control; the T/C (endpoint: median survival time, dose: 3.9 mg/kg/injection, schedule: Q04DX003 (ip), vehicle: saline, higher = longer survival) is 105 % of control and 123 % of control; the T/C (endpoint: median survival time, dose: 3.9 mg/kg/injection, schedule: Q04DX003 (iv), vehicle: saline, higher = longer survival) was 108 % of control and 113 % of control; the T/C (endpoint: median survival time, dose: 4.8 mg/kg/injection, schedule: Q01DX001 (ip), vehicle: saline, higher = longer survival) is 98 % of control and 102 % of control; the T/C (endpoint: median survival time, dose: 4.8 mg/kg/injection, schedule: Q01DX001 (iv), vehicle: saline, higher = longer survival) is 90 % of control and 102 % of control; the T/C (endpoint: median survival time, dose: 5.6 mg/kg/injection, schedule: Q04DX003 (iv), vehicle: saline, higher = longer survival) was 105 % of control. Besides, the T/C (endpoint: median survival time, dose: 6.86 mg/kg/injection, schedule: Q01DX001 (ip), vehicle: saline, higher = longer survival) was 117 % of control; the T/C (endpoint: median survival time, dose: 6.86 mg/kg/injection, schedule: Q01DX001 (iv), vehicle: saline, higher = longer survival) was 111 % of control and 114 % of control; the T/C (endpoint: median survival time, dose: 9.8 mg/kg/injection, schedule: Q01DX001 (iv), vehicle: saline, higher = longer survival) was 105 % of control; the T/C (endpoint: median survival time, dose: 14.0 mg/kg/injection, schedule: Q01DX001 (ip), vehicle: saline, higher = longer survival) is 99 % of control.
On to `CC1(C)OCC(CO)(Nc2nc(N3CC3)nc(N3CC3)n2)CO1`, for which the T/C is, setting by setting: (endpoint: median survival time, dose: 0.62 mg/kg/injection, schedule: Q01DX009 (ip), vehicle: saline, higher = longer survival) 100 % of control and 119 % of control; (endpoint: median survival time, dose: 1.25 mg/kg/injection, schedule: Q01DX009 (ip), vehicle: saline, higher = longer survival) 115 % of control and 116 % of control; under setting [5], 112 % of control.
In the case of `CC(C)C(=O)[O][Sn]([CH3])([CH3])[CH3]`, the T/C was 97 % of control (endpoint: median survival time, dose: 0.09 mg/kg/injection, schedule: Q01DX009 (ip), vehicle: saline, higher = longer survival); 101 % of control (endpoint: median survival time, dose: 0.19 mg/kg/injection, schedule: Q01DX009 (ip), vehicle: saline, higher = longer survival); 89 % of control and 105 % of control (endpoint: median survival time, dose: 0.38 mg/kg/injection, schedule: Q01DX009 (ip), vehicle: saline, higher = longer survival).
Take `CO[C@H](C(=O)[C@@H](O)[C@@H](C)O)[C@@H]1Cc2cc3cc(OC4CC(OC5CC(O)C(O)C(C)O5)C(O)C(C)O4)c(C)c(O)c3c(O)c2C(=O)[C@H]1OC1CC(OC2CC(OC3CC(C)(O)C(O)C(C)O3)C(O)C(C)O2)C(O)C(C)O1` (stereo partly drawn): under setting [2], the T/C is 116 % of control.
As to `COc1cc(C=Nc2ccc(-c3nc(Cc4ccccc4)sc3C)cc2)ccc1N(CCCl)CCCl`, the T/C is, setting by setting: (endpoint: median survival time, dose: 12.5 mg/kg/injection, schedule: Q01DX009 (ip), vehicle: Klucel (hydroxypropylcellulose) (HPC), higher = longer survival) 90 % of control; (endpoint: median survival time, dose: 25.0 mg/kg/injection, schedule: Q01DX009 (ip), vehicle: Klucel (hydroxypropylcellulose) (HPC), higher = longer survival) 110 % of control.
With `CCN(CC)CCNc1ccc([N+](=O)[O-])c2sc3ccccc3c(=O)c12`, the T/C is 88 % of control (endpoint: mean tumor weight, dose: 12.5 mg/kg/injection, schedule: Q01DX011 (ip), vehicle: other, higher = larger tumour); 102 % of control (endpoint: mean tumor weight, dose: 25.0 mg/kg/injection, schedule: Q01DX011 (ip), vehicle: other, higher = larger tumour); 84 % of control (endpoint: mean tumor weight, dose: 50.0 mg/kg/injection, schedule: Q01DX011 (ip), vehicle: other, higher = larger tumour).
On to `CN(C)CC(C(=O)c1ccc(Br)cc1)C(Br)c1ccccc1` (stereo not drawn), for which the T/C is 107 % of control under setting [6]; 100 % of control under setting [7]; 119 % of control (endpoint: median survival time, dose: 40.0 mg/kg/injection, schedule: Q01DX009 (ip), vehicle: saline, higher = longer survival).
As for `CCCNC1=C(N2CC2)C(=O)C(NCCC)=C(N2CC2)C1=O`, the T/C was 102 % of control under setting [5], 112 % of control under setting [6] and 114 % of control under setting [7].
As for `O=C(/C=C/c1ccc(O)c(O)c1)c1ccc(O)c(O)c1O`, the T/C was 57 % of control (endpoint: mean tumor weight, dose: 12.5 mg/kg/injection, schedule: Q01DX011 (ip), vehicle: saline, higher = larger tumour); 89 % of control (endpoint: mean tumor weight, dose: 25.0 mg/kg/injection, schedule: Q01DX011 (ip), vehicle: saline, higher = larger tumour); 64 % of control under setting [3]; 59 % of control under setting [4].
